From PubChem BioAssay AID493092 (Sanford-Burnham Center for Chemical Genomics, 2011)
Calls of active or inactive are those of the source.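 How the source made its calls: active means averaged IC50 for reducing per-cell lipid droplet stain intensity under a set limit; inactive means the rest.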

System: AML12 mouse hepatocytes, BODIPY lipid droplet imaging
Assay: inhibitors of hepatocyte lipid droplet formation, SAR follow-up, imaging, AML12 mouse hepatocytes, BODIPY staining (AID 493092)
Conditions: cells fed 100 µM oleate overnight

Row | SMILES | IC50
1 | CN(Cc1ccc2c(c1)OCO2)C(=O)CNC(=O)Cc1cccc2ccccc12 | > 32 µM (inactive)
2 | COc1ccc(CCNC(=O)Nc2ccccc2C#N)cc1OC | > 32 µM (inactive)
3 | COc1cccc(NC(=O)CCC(=O)Nc2cc(OC)c(NC(=O)c3cccs3)cc2OC)c1 | 0.197 µM
4 | COc1ccc(CCNC(=O)Nc2ccc(F)cc2F)cc1OC | > 32 µM (inactive)
5 | CCOc1cc(CNC(=O)CCCn2c(=O)c3cccn3c3cccnc32)cc(OCC)c1OCC | 0.22 µM
6 | COc1ccc(CCNC(=O)Nc2ccccc2Cl)cc1OC | > 32 µM (inactive)
7 | CCCc1cc(N2CCOCC2)n2ncc(-c3ccccc3)c2n1 | 2.5 µM
8 | CCCc1cc(N2CCOCC2)n2nc(C)c(-c3ccccc3)c2n1 | 0.168 µM
9 | Cc1ccc(C(=O)OC(C)C(=O)Nc2nc(-c3cccc([N+](=O)[O-])c3)cs2)cc1 (stereo unspecified) | 17 µM (inactive)
10 | CCOc1ccc(NC(=O)CCC(=O)Nc2cc(OC)c(NC(=O)c3cccs3)cc2OC)cc1 | 0.276 µM
11 | CCOC(=O)c1cc(CC)sc1NC(=O)C1CC(=O)NN1Cc1ccccc1 (stereo unspecified) | 0.338 µM
12 | CCOc1cc2c(cc1OCC)C(c1ccccc1)N(c1ccccc1)C(=O)C2 (stereo unspecified) | 0.287 µM
13 | CCOc1ccc(CCNC(=O)c2cc3sc(Cl)cc3n2C)cc1OCC | 0.0922 µM
14 | CCN(CC)S(=O)(=O)c1ccc(C(=O)NCC(=O)NCCCc2ccccc2)cc1 | > 32 µM (inactive)
15 | CCCc1cc(N2CCCC2)n2nc(C)c(-c3ccccc3)c2n1 | 0.7 µM
16 | Cc1nn2c(N3CCOCC3)c3c(nc2c1-c1ccccc1)CCC3 | 21.6 µM (inactive)
17 | Cc1cc(N2CCOCC2)n2ncc(-c3ccccc3)c2n1 | 3.07 µM
18 | COc1ccc(CCNC(=O)Nc2cc(F)c(F)cc2Cl)cc1OC | > 32 µM (inactive)
19 | CC1CCCN(C(=O)c2ccc3c(c2NCCO)C(=O)c2ccccc2C3=O)C1 (stereo unspecified) | 2.25 µM
20 | CCOc1ccc(C(C)NC(=O)Cc2ccccc2F)cc1OCC (stereo unspecified) | 0.84 µM
21 | CCOc1ccc(CCNC(=O)CCOc2cc(C)ccc2C)cc1OCC | 0.102 µM
22 | CC(OC(=O)c1ccc(O)cc1)C(=O)Nc1nc(-c2cccc([N+](=O)[O-])c2)cs1 (stereo unspecified) | > 32 µM (inactive)
23 | CCOc1ccc(CN(C)C(=O)CNC(=O)c2ccc(Br)o2)cc1OC | 1.83 µM
24 | CCOc1ccc(CCNC(=O)C2CC=CCC2C(=O)OC(C)C)cc1OCC (stereo unspecified) | 0.267 µM
25 | COc1ccccc1NS(=O)(=O)c1ccc(NN=Cc2c(C)nn(-c3ccccc3)c2N2CCCC2)c([N+](=O)[O-])c1 | 0.887 µM
26 | CC(C)Oc1ccc(C(=O)OC(C)C(=O)Nc2nc(-c3cccc([N+](=O)[O-])c3)cs2)cc1 (stereo unspecified) | 0.106 µM

Row | SMILES | IC50
27 | COc1ccc(C(=O)OCC(=O)NC(C)CCc2ccccc2)cc1OC (stereo unspecified) | 8.73 µM (inactive)
28 | CCOc1ccc(CCNC(=O)CCc2nnc3ccc(N4CCCCC4)nn23)cc1OCC | 0.366 µM
29 | CCc1ccc(NC(=O)CCC(=O)Nc2cc(OC)c(NC(=O)c3cccs3)cc2OC)cc1 | 0.336 µM
30 | O=C(Nc1nc(-c2ccc(-c3ccccc3)cc2)cs1)C1CCCO1 (stereo unspecified) | 1.1 µM
31 | COc1cc2c(cc1OC)CN(C(=O)CNC(=O)Cc1cccc3ccccc13)CC2 | 0.469 µM
32 | CCOc1ccc(CCNC(=O)CN2C(=O)c3cccnc3Oc3ccc(C)cc32)cc1OCC | 0.17 µM
33 | COc1cc(OC)cc(C(=O)NCC(=O)NC(C)CCc2ccccc2)c1 (stereo unspecified) | > 32 µM (inactive)
34 | CC(OC(=O)c1ccc(F)cc1)C(=O)Nc1nc(-c2cccc([N+](=O)[O-])c2)cs1 (stereo unspecified) | > 32 µM (inactive)
35 | Cc1ccc(C(=O)NCC(=O)NCCCc2ccccc2)cc1 | > 32 µM (inactive)
36 | CCOc1ccc(CCNC(=O)Cn2cccc2C(=O)c2ccccc2)cc1OCC | 0.424 µM
37 | COc1cc(NC(=O)c2cccs2)c(OC)cc1NC(=O)CCC(=O)Nc1c(C)cccc1C | 2.2 µM
38 | COc1ccc(C)cc1CN(C)C(=O)C(C)NC(=O)Cc1cccc2ccccc12 (stereo unspecified) | 1.05 µM
39 | CCOc1ccc(CCNC(=O)CCC(=O)N2CCOc3ccccc32)cc1OCC | 0.161 µM
40 | COc1ccc(NC(=O)CCC(=O)Nc2cc(OC)c(NC(=O)c3cccs3)cc2OC)cc1 | 0.635 µM
41 | CC1CC(C)CN(C(=O)c2ccc3c(c2NCCO)C(=O)c2ccccc2C3=O)C1 (stereo unspecified) | 0.782 µM
42 | Cc1cc(N2CCOCC2)n2nc(C(F)(F)F)c(-c3ccc(Cl)cc3)c2n1 | 0.113 µM
43 | COc1ccc(CCNC(=O)Nc2ccccc2C(F)(F)F)cc1OC | > 32 µM (inactive)
44 | CCOc1ccc(CCNC(=O)Nc2ccccc2)cc1OCC | 0.257 µM
45 | CCOc1ccc(C(=O)OC(C)C(=O)Nc2nc(-c3ccc(CC)cc3)cs2)cc1OCC (stereo unspecified) | < 0.0625 µM
46 | CC(OC(=O)c1ccc2c(c1)OCO2)C(=O)Nc1nc(-c2cccc([N+](=O)[O-])c2)cs1 (stereo unspecified) | > 32 µM (inactive)
47 | COc1ccc(C(=O)OC(C)C(=O)Nc2cc(C(F)(F)F)ccc2Cl)c(OC)c1OC (stereo unspecified) | 0.439 µM
48 | COc1ccc(-c2csc(NC(=O)c3ccc(OCC(=O)N4CCOCC4)c(OC)c3)n2)cc1 | 0.475 µM
49 | COc1ccc(C(=O)OCC(=O)NC(C)CCc2ccccc2)c(OC)c1 (stereo unspecified) | 1.01 µM
50 | COc1ccc(CN(C)C(=O)CNC(=O)Cc2cccc3ccccc23)c(OC)c1OC | 2.35 µM
51 | Cc1ccccc1C(=O)NCC(=O)NCCC(c1ccccc1)c1ccccc1 | > 32 µM (inactive)
